Source: ChEMBL document CHEMBL1201862, “PubChem BioAssay data set” (2004)
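Compound exposure: 48 hours, 5 concentrations, 96-well plates. GI50 marks 50% less growth.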 Calls of active or inactive are those of the source. Rule as the data show it: active = GI50 up to about 1.1 µM and inactive = higher.

Legend:
Experiment in all cases: inhibition of tumour cell growth, NCI panel, 48 h
[1] = test system: SF-268
[2] = test system: NCI-H460
[3] = test system: A549
[4] = test system: 786-0
[5] = test system: OVCAR-8
[6] = test system: LOX IMVI
[7] = test system: RXF 393
[8] = test system: SN12C
[9] = test system: SNB-75
[10] = test system: SK-MEL-2
[11] = test system: HOP-92
[12] = test system: SK-MEL-28
[13] = test system: SK-MEL-5
[14] = test system: NCI-H23
[15] = test system: HOP-62
[16] = test system: HT-29
[17] = test system: OVCAR-3

Measured: GI50

C[Si](C)(C)C(Sc1ccccc1)(Sc1ccccc1)Sc1ccccc1
inactive: [1] 76.6 µM | [2] > 100 µM | [3] 39.3 µM | [4] > 100 µM | [5] > 100 µM | [6] 58.5 µM | [7] 29.4 µM | [8] > 100 µM | [9] 40.5 µM | [10] 25.9 µM | [11] 17.1 µM | [12] 46.7 µM | [13] 67.9 µM | [14] 22.3 µM

CC(C)N(C(=O)c1cccc(C(=O)N(C(C)C)C(C)C)c1)C(C)C
inactive: [1] > 100 µM | [2] > 100 µM | [3] > 100 µM | [4] > 100 µM | [5] > 100 µM | [6] > 100 µM | [15] > 100 µM | [8] > 100 µM | [9] > 100 µM | [10] > 100 µM | [11] > 100 µM | [16] > 100 µM | [12] > 100 µM | [13] > 100 µM | [17] > 100 µM | [14] > 100 µM

CCOC(=O)NC(=O)c1c[nH]c(=O)[nH]c1=O
inactive: [2] > 100 µM | [3] > 100 µM | [4] > 100 µM | [5] > 100 µM | [6] > 100 µM | [15] > 100 µM | [8] > 100 µM | [9] > 100 µM | [10] > 100 µM | [11] > 100 µM | [16] > 100 µM | [12] > 100 µM | [13] > 100 µM | [17] > 100 µM | [14] > 100 µM

CC(=O)NC1=C(NCc2ccc(Cl)cc2)C(=O)c2ccccc2C1=O
inactive: [1] 16.5 µM | [2] 10.8 µM | [3] 12.5 µM | [4] 8.77 µM | [5] 7.45 µM | [6] 8.2 µM | [7] 4.24 µM | [15] 12.5 µM | [8] 13.9 µM | [9] 7.08 µM | [10] 5.62 µM | [16] 17.8 µM | [12] 5.5 µM | [13] 5.46 µM | [17] 6.4 µM | [14] 6.76 µM

COc1ccc(C2Oc3cc(OC)c(OC)cc3C2CCl)cc1OC (stereo unspecified)
inactive: [1] > 100 µM | [2] > 100 µM | [3] > 100 µM | [4] 56.8 µM | [5] > 100 µM | [6] > 100 µM | [15] > 100 µM | [8] > 100 µM | [9] 44.8 µM | [10] > 100 µM | [11] 74.3 µM | [12] > 100 µM | [13] 34.1 µM | [17] > 100 µM | [14] > 10 µM

N#Cc1cccc(/C=N/N/C(N)=N/O)c1
inactive: [1] 26.3 µM | [2] 32.1 µM | [3] 24.9 µM | [4] > 100 µM | [5] 78.3 µM | [6] 21.2 µM | [7] 57.7 µM | [15] 92.7 µM | [8] 99.8 µM | [9] 14.8 µM | [10] 72.6 µM | [11] 39.4 µM | [16] 45.5 µM | [12] > 100 µM | [17] > 100 µM | [14] 97.9 µM

c1ccc(C(c2ccccc2)c2cccnc2)cc1
inactive: [1] > 100 µM | [2] > 100 µM | [3] 88.1 µM | [4] > 100 µM | [5] 99.3 µM | [6] > 100 µM | [15] > 100 µM | [8] > 100 µM | [9] 69 µM | [10] > 100 µM | [16] > 100 µM | [12] > 100 µM | [13] 83.8 µM | [17] > 100 µM | [14] 65.8 µM

N#Cc1c2nc3ccccc3nc2n2ccc3ccccc3c12
inactive: [1] > 100 µM | [2] > 100 µM | [3] > 100 µM | [4] > 100 µM | [5] > 100 µM | [8] > 100 µM | [9] > 100 µM | [10] > 100 µM | [11] > 100 µM | [16] > 100 µM | [12] > 100 µM | [13] > 100 µM | [17] > 100 µM | [14] 68.4 µM

O=C(O)c1ccccc1/N=C/c1ccc(N(CCCl)CCCl)cc1
inactive: [1] > 72.4 µM | [2] 31.5 µM | [3] > 100 µM | [5] > 100 µM | [6] > 100 µM | [7] > 48.3 µM | [15] 1.31 µM | [8] > 85.5 µM | [9] > 100 µM | [10] > 100 µM | [11] > 100 µM | [16] > 100 µM | [12] > 100 µM | [13] > 100 µM | [17] > 100 µM | [14] 47.6 µM

COc1cc2ccc(CC#N)cc2cc1OC
inactive: [1] > 100 µM | [2] > 100 µM | [3] > 100 µM | [4] > 100 µM | [5] > 100 µM | [6] > 100 µM | [7] > 100 µM | [15] > 100 µM | [8] > 100 µM | [10] > 100 µM | [11] 71.1 µM | [16] > 100 µM | [12] > 100 µM | [13] 62.1 µM | [14] > 100 µM

Cc1cc(C)nc(NS(=O)(=O)c2ccc(NC(=O)c3ccc(Cl)c4c(Nc5ccc(S(=O)(=O)N=C(N)N)cc5)c5ccccc5nc34)cc2)n1
inactive: [1] 35.1 µM | [2] > 10 µM | [3] > 100 µM | [4] 32.7 µM | [5] 8.65 µM | [6] 17.8 µM | [7] > 10 µM | [15] > 100 µM | [8] 20.8 µM | [9] > 100 µM | [11] 25.5 µM | [16] 16.4 µM | [12] 58.9 µM | [13] > 100 µM | [17] 44.3 µM | [14] 3.91 µM

CCCCN(CCCC)c1c([N+](=O)[O-])c(=O)nc2ccccn12
inactive: [1] 29.3 µM | [2] 24.8 µM | [3] 33.7 µM | [4] 34 µM | [5] 27.5 µM | [15] 32.6 µM | [8] 34.1 µM | [9] 30.8 µM | [10] 31 µM | [11] 61.5 µM | [16] 38.1 µM | [12] 13.7 µM | [13] 33.5 µM | [17] 45.8 µM | [14] 30.8 µM

CCOC(=O)CC(=O)ON(C)C(C)=O
inactive: [1] > 100 µM | [2] > 100 µM | [3] > 100 µM | [4] > 100 µM | [5] > 100 µM | [6] > 100 µM | [15] > 100 µM | [8] > 100 µM | [10] > 100 µM | [16] > 100 µM | [13] > 100 µM | [17] > 100 µM | [14] > 100 µM

O=C(Oc1ccc(Cl)cc1[N+](=O)[O-])c1ccccc1
inactive: [1] > 100 µM | [2] > 100 µM | [3] > 100 µM | [5] > 100 µM | [6] > 100 µM | [7] 24.1 µM | [15] > 100 µM | [8] > 100 µM | [9] 90.8 µM | [10] > 100 µM | [11] > 100 µM | [16] > 100 µM | [12] > 100 µM | [13] 16 µM | [17] 69.5 µM | [14] 69.2 µM

N=C(N)NS(=O)(=O)c1ccc(NCCc2c3ccccc3nc3ccccc23)cc1
inactive: [1] > 100 µM | [2] > 100 µM | [3] > 100 µM | [4] > 100 µM | [5] > 100 µM | [6] 70.1 µM | [7] > 100 µM | [15] > 100 µM | [8] > 100 µM | [9] > 100 µM | [10] > 100 µM | [11] > 100 µM | [16] 64.4 µM | [12] > 100 µM | [17] > 100 µM | [14] > 10 µM

Brc1ccc2[nH]c3c(C4=NCCC4)nccc3c2c1
inactive: [1] 16.1 µM | [2] 9.95 µM | [3] 16.3 µM | [5] 13.5 µM | [6] 18 µM | [7] 16.3 µM | [15] 11.6 µM | [8] 19.1 µM | [9] 31.3 µM | [10] 13.9 µM | [11] > 26.9 µM | [16] 11.2 µM | [12] 16.4 µM | [13] 8.47 µM | [17] 61 µM | [14] 24.8 µM

COc1ccc(O)c(C#N)c1C#N.COc1ccc(OC)c(C#N)c1C#N
inactive: [1] > 100 µM | [2] > 100 µM | [3] > 100 µM | [5] > 100 µM | [6] > 100 µM | [7] > 100 µM | [15] > 100 µM | [8] > 100 µM | [9] 45.8 µM | [10] > 100 µM | [11] > 100 µM | [16] > 100 µM | [12] > 100 µM | [13] > 100 µM | [17] > 100 µM | [14] > 100 µM

CC(C)=CC1C(C(=O)O)C1(C)C (stereo unspecified) [CHRYSANTHEMIC ACID]
inactive: [1] > 750 µM | [2] > 750 µM | [3] > 750 µM | [5] > 750 µM | [6] > 750 µM | [7] > 750 µM | [15] > 750 µM | [8] > 724 µM | [9] > 750 µM | [10] > 750 µM | [11] 520 µM | [16] > 750 µM | [12] > 750 µM | [13] > 750 µM | [17] > 750 µM | [14] > 750 µM
